Assay results taken from ChEMBL document CHEMBL3425436, “Assessing the oral bioavailability of difluorosialic acid prodrugs, potent viral neuraminidase inhibitors, using a snapshot PK screening assay” (Bioorg Med Chem Lett, 2015).

Columns and labels:
[1] = Total plasma concentration in CD1 mouse at 30 mg/kg, po measured at 20 mins by reversed-phase UPLC/MS analysis; assay type: ADME, organism-based; parameters: dose 30 mg/kg, route oral
[2] = Cmax in CD1 mouse at 30 mg/kg, po; assay type: ADME, organism-based; parameters: dose 30 mg/kg, route oral; conditions: in vivo
[3] = Tmax in CD1 mouse at 30 mg/kg, po; assay type: ADME, organism-based; parameters: dose 30 mg/kg, route oral; conditions: in vivo
[4] = Total plasma concentration in CD1 mouse at 30 mg/kg, po measured at 60 mins by reversed-phase UPLC/MS analysis; assay type: ADME, organism-based; parameters: dose 30 mg/kg, route oral
[5] = Half life in CD1 mouse at 30 mg/kg, po; assay type: ADME, organism-based; parameters: dose 30 mg/kg, route oral; conditions: in vivo
Mus musculus [6] = assay: AUC in CD1 mouse at 30 mg/kg, po; assay type: ADME, organism-based, Plasma; parameters: dose 30 mg/kg, route oral; conditions: in vivo
[7] = Oral bioavailability in CD1 mouse at 30 mg/kg; assay type: ADME, organism-based; conditions: in vivo
Mus musculus [8] = assay: Prodrug conversion in CD1 mouse assessed as formation of (2R,3R,4R,5R,6R)-5-acetamido-4-amino-2,3-difluoro-6-((1R,2R)-1,2,3-trihydroxypropyl)tetrahydro-2H-pyran-2-carboxylic acid at 30 mg/kg, po; assay type: ADME, organism-based; parameters: dose 30 mg/kg, route oral; conditions: in vivo
Mus musculus [9] = assay: Total plasma concentration in CD1 mouse assessed as (2R,3R,4R,5R,6R)-5-acetamido-4-amino-2,3-difluoro-6-((1R,2R)-1,2,3-trihydroxypropyl)tetrahydro-2H-pyran-2-carboxylic acid at 30 mg/kg, po measured at 20 mins by reversed-phase UPLC/MS analysis; assay type: ADME, organism-based; parameters: dose 30 mg/kg, route oral; conditions: in vivo
Mus musculus [10] = assay: Total plasma concentration in CD1 mouse assessed as (2R,3R,4R,5R,6R)-5-acetamido-4-amino-2,3-difluoro-6-((1R,2R)-1,2,3-trihydroxypropyl)tetrahydro-2H-pyran-2-carboxylic acid at 30 mg/kg, po measured at 60 mins by reversed-phase UPLC/MS analysis; assay type: ADME, organism-based; parameters: dose 30 mg/kg, route oral; conditions: in vivo, 1 h
Mus musculus [11] = assay: AUC in CD1 mouse at 10 mg/kg, iv; assay type: ADME, organism-based, Plasma; parameters: dose 10 mg/kg, route intravenous; conditions: in vivo
[12] = Total plasma concentration in CD1 mouse at 50 mg/kg, po measured at 20 mins by reversed-phase UPLC/MS analysis; assay type: ADME, organism-based; parameters: dose 50 mg/kg, route oral
[13] = Total plasma concentration in CD1 mouse at 50 mg/kg, po measured at 60 mins by reversed-phase UPLC/MS analysis; assay type: ADME, organism-based; parameters: dose 50 mg/kg, route oral

| concentration at 20 min [1] | Cmax [2] | Tmax [3] | concentration at 1 h [4] | half-life [5] | AUC (Mus musculus [6]) | bioavailability [7] | Drug metabolism (Mus musculus [8]) | concentration (Mus musculus [9]) | concentration (Mus musculus [10]) | AUC (Mus musculus [11]) | concentration at 20 min [12] | concentration at 1 h [13] | SMILES |
| --- | --- | --- | --- | --- | --- | --- | --- | --- | --- | --- | --- | --- | --- |
| 8.41 µM | 13.5 µM | 30 min | 13.3 µM | 74 min | 1706 µmol·min | 64.5% | – | – | – | – | – | – | CCOC(=O)C1=C[C@@H](OC(CC)CC)[C@H](NC(C)=O)[C@@H](N)C1 [OSELTAMIVIR] |
| – | – | – | – | – | – | – | metabolite_detected | 2.57 µM | 4.86 µM | – | – | – | COC(=O)[C@]1(F)O[C@@H]([C@H](O)[C@H]2COC(C)(C)O2)[C@H](NC(C)=O)[C@@H](N)[C@H]1F |
| 2.7 µM | 2.8 µM | 20 min | 4.93 µM | 196 min | 320 µmol·min | 3.1% | – | – | – | 3394 µmol·min | 4.5 µM | 8.21 µM | CC(=O)N[C@@H]1[C@@H](N)[C@@H](F)[C@](F)(C(=O)O)O[C@H]1[C@H](O)[C@H](O)CO |
